Measurements taken from patent US20100210597A1, “C21-Deoxy Ansamycin Derivatives as Antitumor Agents” (priority 2007, published 2010).
Converted amounts (≈) assume the structure as drawn. Read-outs that look alike come from different tables or passages of the source.

How the values were obtained:
[1] = Water solubility assay, thermodynamic measurement; assay type: physicochemical; conditions: 5% glucose, 6 hours, room temperature
Description: Thermodynamic Measurements: • The appropriate amounts of compound to make solutions of the compounds at 2, 5, 10 and or 20 mM were mixed with the appropriate amounts of 5% glucose and with DMSO in brown glass vials and shaken at room temperature on an IKA® vibrax VXR shaker. After 6 hours the resulting suspensions/solutions were centrifuged for 20 min at 13200 rpm. • Aliquots of the supernatant fluid were then analysed by an Agilent 1100 HPLC coupled to a Bruker Daltonics Esquire3000 electrospray mass spectrometer (for details see specific examples herein). Chromatography was achieved over a Phenomenex Hyperclone column, BDS C18 3u (150×4.6 mm), with a linear gradient of acetonitrile:water (40:60 to 100) over 11 min at 1 mL/min. UV absorbance was monitored at λ=258 and 280 nm. • All analyses were performed in triplicate and the solubilities of individual compounds calculated by comparing their solubility in 5% glucose with an assumed solubility of 100% in DMSO.
Solubility in 2% DMSO in PBS at each time point was determined by comparing total peak areas for each chromatogram with mean total peak area for chromatograms produced from the corresponding 6 hour DMSO solutions. (Mean total peak area in DMSO solutions was assumed to be equivalent to a 0.5 mM solution). The solubility of compound 17 was measured by a thermodynamic assay as described in the general methods.

[2] = system: Hsp90; conditions: shown in WO2007/074347 (there compound 14); cited from earlier work
[3] = system: Caco-2 cells; experiment: In vitro Caco-2 assay for cell permeability; assay type: in vitro ADME; conditions: 10 uM, 2 hour incubation
Description: (§1) Caco-2 cells (ATCC Cat. # HTB-37) were grown on fibrillar collagen-coated, microporous, polycarbonate membranes in 24-well BioCaot™ insert plates. Following 5-day growth in Eagle's minimum essential medium supplemented with 10% FBS, the cells were exposed to BioCoat Enterocyte Differentiation Medium (BD, Cat. # 05496) for 2 days to induce enterocytic differentiation. Prior to dosing, the transepithelial electric resistance (TEER) of the Caco-2 cells in each well was measured to ensure the quality of the monolayers.
(§2) The stock solutions of test compounds were prepared at 3 mM in DMSO. Dosing solutions were prepared in the permeability assay buffer at 10 μm. The permeability assay buffer was Hank's balanced salt solution containing 10 mM HEPES at a pH of 7.4±0.2.
(§3) The Caco-2 cells were dosed with the test compounds on either apical side (for A-to-B permeation) or basolateral side (for B-to-A permeation) and incubated at 37° C. with 5% CO2 and 90% relative humidity. The testing for each compound was performed in duplicate. After 2 hour incubation, a 20-μL sample was taken from each of dosing solutions and both donor and receiver compartments. To ensure the validity of the Caco-2 assay, propranolol and vinblastine were used as a high- and a low- to medium-permeability positive control, respectively. Vinblastine also served as a P-gp substrate, tested in conjunction with a P-gp inhibitor, verapamil.
(§4) To quantify test compounds by LC/MS/MS, a related geldanamycin-like compound, 17-methoxyethylamino geldanamycin (Schnur et al., 1995), was used as the internal standard. The calculation of permeability of each compound involved only the concentration ratio of the same test compound, the concentration ratio was expressed in the peak area ratio of the test compound to the internal standard. The peak area ratio of each compound was derived by LC-MS/MS.
(§5) The apparent permeability coefficient Papp was calculated as below: […]
(§6) dCr: cumulative concentration in the receiver compartment in M. dt: duration of the assay (i.e., 7200 seconds). Vr: volume of the receiver compartment in cm^3. A: area of the cell monolayer (0.31 cm^2 for 24-well BioCoat™ plate). C0: concentration of the dosing solution in M.
(§7) The in vitro permeability of 20 and the parent 17 were assayed using caco-2 cells, as described in the general methods. All compounds were analysed at a concentration of 10 uM.

[4] = In vitro Caco-2 assay for cell permeability; assay type: in vitro ADME; conditions: human, Caco-2, pH 7.4, 10 uM, 2 hour incubation
Description: as §1, §2, §3, §4, §5, §6, §7

[5] = In vivo pharmacokinetic assay in mice; set-up: species or system mouse; conditions: female CD-1 mice
Description: The test compound was prepared directly in endotoxin free water. A single dose of 10 mg/kg p.o. or 3 mg/kg i.v. was administered to groups of female CD1 mice (3 mice for each compound per time point). Dose volumes were 10 mL/kg for both oral and intravenous administration. At 4 minutes and 0.25, 0.5, 1, 2, 4, 8, 24 hours groups were sacrificed and plasma was collected from each mouse for further analysis. For oral dosing, a single dose of Test Article was administered via oral gavage to the mice. For intravenous dosing, a single dose of Test article was administered intravenously to mice via the tail veins.
The concentration of the relevant compounds in the plasma samples was determined by HPLC with MS detection.
• Mass spectrometer: API 3200 Q Trap triple quadruple mass spectrometer • Liquid chromatography: Agilent 1200/PAL HTC Autosampler • Ionization Mode: Electrospray (may be changed depending on the TA) • Monitoring: Multiple Reaction Monitoring • LC chromatography BetaBastic-8, 50×2.1 mm, 5 μm (may separation: be changed depending on the TA)
Based on the peak area ratios of test article to an internal standard, 17-Methoxyethylamino Geldanamycin (Schnur et al., 1995), concentrations of an unknown sample were obtained by a calibration curve.
Test plasma sample (0.05 ml), analyte free mouse whole serum (0.05 ml), internal standard solution (0.1 ml of 10 mg/mL 17-Methoxyethylamino geldanamycin (Schnur et al., 1995) dissolved in methanol) and acetonitrile (0.5 ml) were pipetted into a 2-mL polypropylene tube and the contents of the tubes were mixed for a minimum of 5 minutes (Vibrax mixer). The tubes were then centrifuged in a microfuge for a minimum of 2 minutes at 12,000 rpm. 0.1 ml of the solvent layer was transferred into a 2-mL polypropylene tube containing 1 mL acid diluent (0.1% formic acid). The tubes were then mixed for a minimum of 5 minutes (Vibrax mixer) and then centrifuged at approximately 3500 rpm for 5 minutes. The extracts were transferred to auto-sampler vials and placed in the auto sampler tray which was set at ambient temperature. The auto-sampler was programmed to inject a 0.005 ml aliquot of each extract onto the analytical column.
In vivo confirmation of the cleavage of 20 to the parent molecule, 17, was carried out as described in the general methods.
Female CD-1 mice were given single doses of 20, either intravenously at 3 mg/kg, or orally at 10 mg/kg. Plasma samples were then collected at 8 time points (0.067, 0.25, 0.5, 1, 2, 4, 8 and 24 h postdose) over a 24-h period. The amounts of 20 and 17 in the samples were then analysed. […] After iv administration, 20 was only detected up to 0.25 hours after dosing, whilst 17 was detected up to 4 hours after dosing.

For `CO[C@H]1C[C@H](C)Cc2cc(O)cc(c2)NC(=O)/C(C)=C/CC[C@H](C)[C@@H](OC(N)=O)/C(C)=C/[C@H](C)[C@H]1O` [Compound 17, 4,5-dihydro-11-O-demethyl-15-demethoxy-18,21-didehydro-21-deoxomacbecin], the solubility [1] is listed as 716 µM (≈ 360 µg/mL), the Hsp90 inhibition [2] is listed as “potent Hsp90 inhibitor” and the “Efflux Limited” value [3] is listed as “Yes (Papp (B → A)/Papp (A → B) ≧ 3, and Papp (B → A) ≧ 1.0 × 10^-6 cm/s)”. For the same compound, the efflux ratio at 2 h, 10 uM ([4]; read-out: Efflux ratio Papp(B → A)/Papp(A → B)) was 6.8, the Papp A→B at 2 h, 10 uM ([4]; read-out: Permeability Apical to Basolateral Papp(A → B) Mean) was 0.44 ×10⁻⁶ cm/s and the Papp A→B at 2 h, 10 uM ([4]; read-out: Permeability Apical to Basolateral Papp(A → B) Rep. 1) was 0.39 ×10⁻⁶ cm/s. It also gave a Papp A→B at 2 h, 10 uM ([4]; read-out: Permeability Apical to Basolateral Papp(A → B) Rep. 2) of 0.49 ×10⁻⁶ cm/s, a Papp B→A at 2 h, 10 uM ([4]; read-out: Permeability Basolateral to Apical Papp(B → A) Mean) of 2.95 ×10⁻⁶ cm/s and a Papp B→A at 2 h, 10 uM ([4]; read-out: Permeability Basolateral to Apical Papp(B → A) Rep. 1) of 1.7 ×10⁻⁶ cm/s. The Papp B→A at 2 h, 10 uM ([4]; read-out: Permeability Basolateral to Apical Papp(B → A) Rep. 2) was 4.21 ×10⁻⁶ cm/s, the “detected in plasma up to (time after dosing)” value ([5]; single intravenous dose of 20 at 3 mg/kg) was “up to 4 hours” and the “detected in plasma up to (time after dosing)” value ([5]; single oral dose of 20 at 10 mg/kg) was “up to 8 hours”.
